Results published in patent US20110091375A1, “USE OF THE COMBINATION COMPRISING TEMOZOLOMIDE AND TNF-ALPHA FOR TREATING GLIOBLASTOMA” (THE UNIVERSITY OF CHICAGO, priority 2004, published 2011).
“Also recorded” adds a separate entry of the source.

Key:
U87 hindlimb xenografts [1] = experiment: TNFα induction in vivo in hindlimb xenografts; set-up: species or system nude mice
Method: U87 cells (5×10^6) in […] were injected subcutaneously (sc) into the right hindlimb of nude mice. When tumors reached an average size of 200 mm^3 (length×width×thickness/2), the tumor-bearing mice were randomized into 4 groups: 1. Untreated Control (UTC); 2. Ad.Egr-TNF alone; 3. TMZ alone; 4. Ad.Egr-TNF and TMZ. Ad.Egr-TNF was injected intratumorally (IT) at a dose of 2×10^8 particle units (pu) each day. Two doses of TMZ were given: 2.5 mg/kg/day and 5 mg/kg/day by intraperitoneal (IP) injection 3 h after vector. Four consecutive daily IT and IP injections were given, control animals received IT and IP serum free medium (SFM). Animals were euthanized on day 2 and 4 (i.e., 48 h and 96 h after treatment initiation), tumors harvested, snap-frozen in liquid nitrogen and homogenized in RIPA buffer (150 mM NaCl, 10 mM Tris at pH 7.5, 5 mM EDTA at pH 7.5, […], 1 μg/mL leupeptin, and 2 μg/mL aprotinin). Protein was isolated and concentration measured using Protein Assay reagent (Bio-Rad Laboratories, Hercules, Calif.). TNFα levels in the supernatants were measured as described above.

U87 hindlimb xenografts [2] = experiment: Hindlimb glioma xenograft tumor growth; assay type: in vivo, nude mice; settings: 30 days following treatment, second hindlimb study
Method: Hindlimb Studies: U87 hindlimb xenografts were established as described above in Example 4. In one study, mice were randomized into four groups as described in Example 4 and treatment initiated (day 0). Ad.Egr-TNF (2×10^8 pu) was injected IT twice a week for 4 total injections, and 5 mg/kg TMZ was given IP 3 h after each vector injection for a total of 20 mg/kg. The dose of TMZ used was approximately 0.2 LD10 and was chosen to have modest anti-tumor effect but to not be curative based on previous studies (Friedman, H. S. et al. (1995) Cancer Res 55(13):2853-2857) and data from our lab showing LD50 for IP TMZ to be approximately 500 mg/kg. Tumor volume was measured every 2-3 days. Fractional tumor volume (V/V0 where V0=volume on day 0) was calculated and plotted.
In a second study, tumor-bearing mice were randomized into eight treatment groups: untreated control (UTC); intratumoral (IT) Ad.Egr-TNF alone; intraperitoneal (IP) TMZ alone; IR alone; Ad.Egr-TNF and TMZ; Ad.Egr-TNF and IR; TMZ and IR; and Ad.Egr-TNF, TMZ and IR. Ad.Egr-TNF was administered IT at a dose of 2×10^8 pu/10 μL twice a week for 2 weeks, IP TMZ was given 3 h after vector at 5 mg/kg to a total of 20 mg/kg. […] Xenografts were measured twice a week using calipers, tumor volume was calculated, and fractional tumor volumes (V/V0 where V0=volume on day 0) were plotted.

[3] = test system: NF-κB in U87 glioma cells; experiment: NF-κB-responsive luciferase reporter assay, U87; assay type: cell-based, human
Method: U87 cells (5×10^3) were plated overnight and subsequently co-transfected with Ig-κB-Luc (or pE425 GL3) and the Renilla reniformis expression vector, pRL-TK, to normalize transfection efficiency, at a ratio of 10:1 using SuperFectin transfection kit (Qiagen, Valencia, Calif., USA). Twenty-four hours after transfection, the cells were pretreated with TMZ (100 μM) for 16 h, then treated with TNFα (10 ng/mL). Five hours later NF-κB (or Egr-1) and Renilla luciferase activity were measured with the Dual-Luciferase reporter assay system (Promega Corp., Madison, Wis., USA). Relative luciferase was calculated as the ratio of firefly luminescence/Renilla luminescence for each sample.

IκBα = experiment: TNFα-induced IκBα degradation and phosphorylation (Western blot / kinase assay); assay type: cell-based, human
Method: Cells were then washed with 10 mL ice-cold PBS, scraped from the dish, and pelleted by centrifugation at 1000 rpm for 5 m at 4° C. Cell pellets were resuspended in 400 μl of ice-cold buffer A (10 mM HEPES, pH 7.9; 10 mM KCl; 0.1 mM EDTA; 1 mM DTT; 0.5 mM phenylmethysulfonylfluoride [PMSF]; 1 μg/mL leupeptin; 5 μg/mL aprotinin) and allowed to swell on ice for 15 m. Following the addition of 25 μl of 10% NP-40, the suspension was vortexed for 10 s and centrifuged at 14,500 rpm for 1 m at 4° C. Nuclei were resuspended in 50 μl of ice-cold buffer B (20 mM HEPES, pH 7.9; […]; 1 mM EDTA; 1 mM DTT; 1 mM PMSF; 25% glycerol; 1 μg/mL leupeptin; 5 μg/mL aprotinin) and incubated on ice for 15 m. The nuclear suspension was then centrifuged at 14,500 rpm for 5 m at 4° C. and the supernatant containing the nuclear proteins was transferred to a clean tube. Protein concentrations for each sample were determined by the Bradford method (Bio-Rad, Richmond, Calif., USA) and were adjusted to 2 μg/μl by the addition of buffer B.
20 μg of whole U87 cell (or nuclear) lysate was subjected to sodium dodecyl sulfate (SDS)-polyacrylamide gel electrophoresis (PAGE). Following electro-transfer, Immobilon-P membranes (Millipore Corp. Burlington, Mass., USA.) were probed with primary polyclonal antibody against IκBα, phospho-Ser32-IκBα, SAPK/JNK, phospho-Thr183/Tyr185-SAPK/JNK, p65, phospho-Ser536-p65 (Cell Signaling Technology Inc. Beverly, […]., USA) diluted 1:1000 overnight at 4° C. Anti-rabbit IgG HRP-linked secondary antibody (Cell Signaling Technology) was diluted 1:1000 in blocking buffer and applied for 1 h at room temperature. Immunoreactive bands were detected by SuperSignal enhanced chemiluminescence (ECL) (Pierce, Rockford, Ill., USA) and exposed to Kodak X-Omat film.
IκK was immunoprecipitated from treated U87 cell extracts with anti-IKKβ antibody, (Santa Cruz Biotechnology, Santa Cruz, Calif., USA). […] Kinase activity was quantified using a Phosphoimager and Equal protein loading determined by immunoblotting with anti-IκKβ antibody (Upstate USA, Charlottesville, Va., USA). […]

Cn1nnc2c(C(N)=O)ncn2c1=O [TMZ, temozolomide]
TNF detection in vivo (U87 hindlimb xenografts [1]): No TNF was detected
animals with complete disappearance of palpable tumor (U87 hindlimb xenografts [2]): 1/10
TNFα-induced NF-κB transcriptional activity ([3]; U87, TMZ pre-treatment): dose dependent inhibition; also recorded: completely inhibited
transcriptional activity of NF-κB, TMZ used alone ([3]; glioma cells, no TNFα): slightly increases
reduction of TNFα-induced phosphorylation of IκBα (IκBα; TMZ pretreatment, at 5 m): 50%
degradation of IκBα (IκBα; at 15 m, TNFα with or without TMZ pretreatment): reduced TNFα-induced degradation
